{
  "source": "patent US20040132969A1",
  "about": "“Antibodies, peptides, analogs and uses thereof” (priority 2000, published 2004)",
  "key": {"[1]": {"tested_on": "chick chorioallantoic membrane (CAM) vessels", "assay": "Vessel counting assay using CAM model", "format": "in vivo", "method": "The CAM were prepared as for the tritiated thymidine assay.\nDulbecco's phosphate buffered saline was used as a control. A range of concentrations of peptides WTM33, WTM34, and WTM35 (1.875, 3.75, 7.5, 15, 30, and 60 μg/ml) were added to the CAM. Inoculations of 0.2 ml of the peptide were carried out on days 10,11 and 12 of CAM development, and then fixed using formalin on day 15.\nAfter fixing in formalin for 2 days the CAM were excised and spoke like sections cut from the centre of the CAM to the outer edge. These were embedded in wax and processed on to slides with H&E staining to visualise the vessels in the section. The numbers of vessels per field of vision, over 10 fields were counted using an Olympus microscope. [Eyepieces set at 58, using ×40 (0.65) lens, from the graticule diameter of field is 0.45 mm, and therefore 1 mm is equal to 2.22 fields of view.] The average number of vessels/field of view×2.22 gives number of vessels/mm of CAM."}, "[2]": {"tested_on": "HUVEC and fibroblasts", "assay": "Neutral Red cell metabolism cytotoxicity assay", "format": "cell-based, human", "conditions": "HUVEC and fibroblast monocultures; 72 hours", "method": "In order to determine whether the fibrin E analogue peptides WTM33, WTM34, WTM35, WTM36, and WTM37 are cytotoxic when applied to the HUVEC and fibroblasts used in the Angiosys™ angiogenesis assay, these reagents were examined in two different cytotoxicity assays. To simplify performance of these assays and discriminate between fibroblasts and HUVEC, cells were grown in monocultures rather than together and then treated with the experimental reagents as described below.\nA Neutral Red cell metabolism assay was used to determine the cytotoxicity to HUVEC and fibroblasts of the fibrin E analogue peptides. This assay works on the basis of colorimetric measurement of a red dye which, is reported to be taken up into the lysosomes of uninjured cells. Thus the stronger the colour signal obtained from a well of cells, the greater the percentage of cells remaining viable within that well. HUVEC cells were inoculated into wells of 96 wells at a density of 5×10^3 cells per well, in endothelial cell culture medium. Fibroblasts were similarly seeded 5×10^3 cells per well. The cells were incubated for 24 hours under standard conditions to permit adherence and growth, and then treated for 72 hours with fresh medium containing fibrin E peptides over the same range of concentrations used in the Angiosys™ angiogenesis assay. For each concentration of each of the six peptides, four replicate wells of each cell type were treated and then assayed. Following incubation with the test compounds, the medium was removed and replaced with 200 μl per well of fresh medium containing 3.57 mg neutral red per 100 ml. The cells were incubated with this neutral red solution for 3 hours, after which this solution was decanted and replaced with 100 μl 1% formaldehyde/1% CaCl2. This was rapidly decanted and replaced in turn with 200 μl 50% ethanol/1% acetic acid, which was incubated at room temperature for 30 minutes to extract the neutral red from the cells. The plates were then read in a 96 well plate-format spectrophotometer, measuring absorbance at 540 nm. Mean absorbance values from each group of four wells were calculated and expressed as a percentage±standard deviation of the mean value obtained from control wells incubated in the absence of fibrin E analogue peptide."}, "[3]": {"tested_on": "Lewis Lung Carcinoma (LLC) cells", "assay": "Pulmonary tumour metastasis model (Lewis lung carcinoma)", "format": "in vivo, C57BL/6J mice", "conditions": "lung weight / metastatic episodes", "method": "In the metastasis model, Lewis Lung Carcinoma (LLC) cells are injected into the tail of the mouse, lodge in the lungs, and grow and spread rapidly.\nIn more detail, groups of five C57BL/6J mice were injected with 5×10^4 LLC cells via the tail vein and were subsequently treated intraperitoneally with various concentrations of tested peptides or equal volume of diluent control. The treatment was initiated three days after tumor cell inoculation. Two weeks after the intravenous injection of tumor cells, the mice were sacrificed and necropsied. The lungs were removed, weighed and compared to untreated controls, and to normal lungs without tumors. Results were analyzed for statistical significance using the Student's t-test."}, "[4]": {"tested_on": "human umbilical vein endothelial cells (HUVEC) co-cultured with primary human diploid fibroblasts", "assay": "Angiosys co-culture angiogenesis assay (HUVEC tubule formation)", "format": "cell-based", "source_text": "The recently developed Angiosys™ co-culture angiogenesis assay (TCS Cell Works, Botolph Claydon, UK) was employed to examine the biological activity of the fibrin E analogue peptides WTM33, WTM34, WTM35, WTM36, and WTM37. This assay involves the co-culturing of human umbilical vein endothelial cells (HUVEC) with primary human diploid fibroblasts. In control cultures treated by the standard method as supplied by the manufacturers, both cell populations increase in number to form a confluent fibroblast monolayer on top off which the HUVEC cells form into corded structures. These structures thicken and anastomose by day 14 to form an intricate network of microvessel-like structures that resemble a capillary bed. It has previously been shown that the control conditions in this assay result in an intermediate degree of formation of these microtubules that can be enhanced by angiogenic effectors such as vascular endothelial growth factor (VEGF), or reduced by anti-angiogenic agents such as suramin (33).\nThe Angiosys™ assay was used as directed by the manufacturer. Briefly, HUVEC and human diploid fibroblasts were admixed, seeded into 24-well culture plates and incubated for 14 days in endothelial cell culture medium (ECM, TCS Cell Works). This medium, which was replaced with fresh every second day, contains angiogenic factors such as VEGF. Fibrin E analogue peptides were dissolved in this same medium to the indicated concentrations and applied to the cells in the same way as control medium. After the incubation period of 14 days, medium was removed and the cells were fixed in situ at room temperature in 70% ethanol and viewed with an MRC 600 confocal microscope (Bio-Rad). Images were captured using a JVC videocamera mounted on the microscope and coupled to a Neotech Image Grabber/PC.\nThe table illustrates the […] effects of peptide WTM 35 and 36 (0.19-0.75 μg/ml) on HUVEC tubule formation in the Angiosys™ co-culture angiogenesis assay, compared with an untreated control. The table show the average tubule length obtained using an image analysis package for the PC which transforms the visual data into pixels: […]"}},
  "note": "“Also recorded” adds a separate entry of the source.",
  "data": [
    {"sequence": "LHADPDLGVLCPTGC [WTM34]", "values": [
      {"measurement": "effect on vessel number", "setting": "[1]; 30 microgrammes/ml", "value": "significant reduction in the number of vessels"},
      {"measurement": "effect on number of vessels per mm of CAM", "setting": "[1]; across the range of concentrations tested (1.875-60 μg/ml)", "value": "inhibits cell proliferation and vessel formation in the CAM"},
      {"measurement": "effect on number of vessels per mm of CAM", "setting": "[1]; across the range of concentrations tested (1.875-60 μg/ml), listed as WTM 34", "value": "more dramatic biphasic reaction"},
      {"measurement": "effect on number of vessels per mm of CAM", "setting": "[1]; higher dose range / very high doses", "value": "significant reduction in vessel formation"},
      {"measurement": "effect on vessel number", "setting": "[1]; low doses", "value": "stimulatory effect on vessel number"},
      {"measurement": "cytotoxicity / cell viability, Neutral Red assay", "setting": "[2]", "value": "not cytotoxic; also recorded: no toxicity"},
      {"measurement": "effect in metastasis model (in words)", "setting": "[3]", "value": "striking results"},
      {"measurement": "HUVEC tubule formation (in words)", "setting": "[4]; 0.75, 0.38 and 0.19 μg/ml", "value": "inhibit HUVEC tubule formation; also recorded: complete inhibition - no tubule"},
      {"measurement": "toxic effect (number of fibroblasts and endothelial cells present)", "setting": "[4]; Angiosys system", "value": "did not have a toxic effect"},
      {"measurement": "HUVEC tubule formation (in words)", "setting": "[4]; across the range of / all concentrations", "value": "inhibition of HUVEC tubule formation; also recorded: most inhibitory"},
      {"measurement": "HUVEC tubule formation (in words)", "setting": "[4]; lowest applied doses of 3 μg/ml", "value": "markedly reduced the formation of tubules"}
    ]}
  ]
}
